Reference: BindingDB's records for patent US11396516 (The General Hospital Corporation, 2022)

Biological target: T1, Cytochrome P450 1A2 (Homo sapiens, UniProt P05177)
T1 sequence (P05177 whole entry): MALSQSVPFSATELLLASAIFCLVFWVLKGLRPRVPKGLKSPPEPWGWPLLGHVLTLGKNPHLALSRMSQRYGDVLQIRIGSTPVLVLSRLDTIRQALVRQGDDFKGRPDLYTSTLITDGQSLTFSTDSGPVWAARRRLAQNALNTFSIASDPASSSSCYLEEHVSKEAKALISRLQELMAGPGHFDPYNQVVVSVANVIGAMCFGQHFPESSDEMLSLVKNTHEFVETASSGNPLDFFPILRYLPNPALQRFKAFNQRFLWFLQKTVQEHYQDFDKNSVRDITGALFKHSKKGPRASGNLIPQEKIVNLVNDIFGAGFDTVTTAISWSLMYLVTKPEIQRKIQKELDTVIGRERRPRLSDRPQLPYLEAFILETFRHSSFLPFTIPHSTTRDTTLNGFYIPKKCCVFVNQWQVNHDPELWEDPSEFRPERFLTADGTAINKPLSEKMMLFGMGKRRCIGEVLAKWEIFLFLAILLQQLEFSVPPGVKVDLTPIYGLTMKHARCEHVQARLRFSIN
Experiment: Inhibition of CYP Enzyme Activity In Vitro
Experimental: The ability of the tested compounds to inhibit a panel of CYP enzymes in vitro was assessed using a series of human liver microsome assays. Half-maximal inhibitory concentration (IC50) was calculated for compounds demonstrating mean inhibition greater than 50% compared to a reference inhibitor.

COc1c2ccoc2cc2oc(C)cc(=O)c12 [US11396516, Example visnagin]
IC50: 240 nM
